In the CheMixHub viscosity set:
“And” between values parts separate entries of the source, which are not always exact repeats. Identical values can stand only once.

CCCCCC
viscosity
Details | 293.15 K | 298 K | 303 K | 303.15 K | 308.15 K | 313 K | 313.15 K | 318.15 K | 323 K | 323.15 K
100 kPa | – | – | – | 0.2941 mPa·s | – | – | 0.259 mPa·s and 0.26 mPa·s and 0.257 mPa·s | – | – | 0.2345 mPa·s and 0.231 mPa·s
101 kPa | 0.31 mPa·s and 0.3119 mPa·s | 0.31 mPa·s | 0.2673 mPa·s | – | 0.268 mPa·s and 0.265 mPa·s | 0.2482 mPa·s | – | 0.3 mPa·s and 0.245 mPa·s | 0.2285 mPa·s | 0.2333 mPa·s and 0.235 mPa·s
101.3 kPa | – | – | – | 0.2776 mPa·s and 0.286 mPa·s and 0.294 mPa·s | – | – | 0.274 mPa·s | – | – | 0.251 mPa·s
101.33 kPa | 0.31 mPa·s | – | 0.273 mPa·s and 0.2865 mPa·s | – | – | 0.247 mPa·s | 0.2391 mPa·s and 0.257 mPa·s and 0.257 mPa·s | 0.247 mPa·s | 0.226 mPa·s | 0.2524 mPa·s
